Entries after “also recorded” stand apart in the source; their conditions may differ. Read-outs that look alike come from different tables or passages of the source.
How the values were obtained:
[1] = tested on: CBRs expressed in PC-3 membranes; experiment: [^3H]WIN-55,212-2 competitive binding screen, PC-3 membranes; set-up: species or system human
Protocol: (§1) The assay was conducted as previously detailed. […] All binding reactions were conducted in triplicate, in a final volume of 1 mL, and, following mixing, were incubated for 20 min in a 37 °C water bath to achieve equilibrium. After incubation, reactions were terminated by rapid vacuum filtration through Whatman GF/B glass fiber filters (Brandel; Gaithersburg, MD, USA), followed by three washes of 4 mls of ice-cold filtration buffer (50 mM Tris, pH 7.4, and 0.05% bovine serum albumin). Samples were punched out from filter papers into scintillation vials, to which 4 mls of ScintiverseTM-BDR cocktail scintillation fluid (Fisher Scientific; Hampton, NH, USA) was added. Filters were incubated at room temperature for 24 h in scintillation fluid, vortexed, and radioactivity (measured as DPMs) was quantified via a liquid scintillation spectrophotometer (Tri Carb 2100 TR Liquid Scintillation Analyzer, Packard Instruments, Meriden, CT, USA).
(§2) These experiments were conducted to screen well-characterized cannabinoid ligands with high affinity for canonical CB1 and/or CB2Rs for binding to CBRs expressed in prostate cancer cells lines, as detailed in [33]. […] All binding reactions were conducted in triplicate, in a final volume of 1 mL, and, following mixing, were incubated for 20 min in a 37 °C water bath to achieve equilibrium. After incubation, reactions were terminated by rapid vacuum filtration and processed for radioactivity, as detailed in Section 4.5.1.

[2] = tested on: CBRs expressed in DU-145 membranes; format: binding, human
Protocol: as §1, §2

[3] = tested on: CBRs expressed in DU-145 membranes; format: biochemical, human; details: 10 μM
Protocol: Non-specific binding was defined as radioactivity remaining in the presence of 10 μM of non-radioactive GTPγS and subtracted from total binding to determine specific [^35S]GTPγS binding. All binding reactions were conducted in triplicate, in a final volume of 1 mL, and, following mixing, were incubated for 30 min at 30 °C. After incubation, reactions were terminated by rapid vacuum filtration through Whatman GF/B glass fiber filters (Brandel; Gaithersburg, MD, USA), followed by three washes of 4 mls of ice-cold filtration buffer (50 mM Tris, pH 7.4, and 0.05% bovine serum albumin). Samples were punched out from filter papers into scintillation vials, to which 4 mls of ScintiverseTM-BDR cocktail scintillation fluid (Fisher Scientific; Hampton, NH, USA) was added. Filters were incubated at room temperature for 24 h in scintillation fluid, vortexed, and radioactivity (measured as DPMs) was determined via a liquid scintillation spectrophotometer (Tri Carb 2100 TR Liquid Scintillation Analyzer, Packard Instruments, Meriden, CT, USA).

[4] = tested on: CBRs expressed in DU-145 cells; format: cell-based, human
Protocol: (§3) These studies were conducted to determine the effect of chronic exposure of PC-3 and DU-145 cells to cannabinoid ligands with high affinity for non-canonical CBRs on receptor expression. PC-3 or DU-145 cells were seeded into T25 flasks at a density of 1.6 × 10^6 cells in normal medium and cultured at 37 °C with 5% CO2 for 24 h. Following overnight seeding, culture media was aspirated and replaced with serum-free medium containing vehicle or a receptor-saturating concentration (10 μM) of each cannabinoid ligand to be tested. Cells were subsequently cultured at 37 °C with 5% CO2 for an additional 48 h. […] Cells were then centrifuged at 1200 rpm for 10 min, and pellets were stored in −80 °C until future use.
(§4) All binding reactions were conducted in triplicate, in a final volume of 1 mL, and following mixing were incubated for 20 min in a 37 °C water bath to achieve equilibrium. After incubation, reactions were terminated by rapid vacuum filtration through Whatman GF/B glass fiber filters (Brandel; Gaithersburg, MD, USA), followed by three washes of 4 mls of ice-cold filtration buffer (50 mM Tris, pH 7.4, and 0.05% bovine serum albumin). Samples were punched out from filter papers into scintillation vials, to which 4 mls of ScintiverseTM-BDR cocktail scintillation fluid (Fisher Scientific; Hampton, NH, USA) was added. Filters were incubated at room temperature for 24 h in scintillation fluid, vortexed, and radioactivity (measured as DPMs) was quantified via a liquid scintillation spectrophotometer (Tri Carb 2100 TR Liquid Scintillation Analyzer, Packard Instruments, Meriden, CT, USA).

[5] = tested on: CBRs expressed in PC-3 cells; format: cell-based, human
Protocol: as §3, §4

DU-145 cells = experiment: LDH cytotoxicity, DU-145 cells; format: cell-based, human; details: 24 h; for LDH release: 10 μM; for increase in LDH release: 50 μM
Protocol: DU-145 cells were seeded at a density of 130 × 10^3 cells/well in 6-well plates and maintained in an incubator at 37 °C with 5% CO2 for 24 h. […] Treated cells were incubated for an additional 24 h, followed by quantification of LDH release. LDH released from damaged or dying cells oxidizes lactate to produce NADH which then reacts with a water-soluble tetrazolium salt (WST) reagent to produce a yellow-colored product. The intensity of the yellow-colored product was detected with an OD reading at 450 nm (quantified by a BioTek microplate reader interfaced with SoftMax Pro 5.4.5 software; Winooski, VT, USA) and was directly proportional to the amount of LDH released. Percent cytotoxicity was calculated according to the manufacturer’s protocol as the following: % Cytotoxicity=OD450 Supernatant/Supernatant+Lysate

[6] = 1 μM ligand, 1 nM radioligand, PC-3 membranes

Row | SMILES | displacement of [^3H]WIN-55,212-2 [1, 6] | displacement of [^3H]WIN-55,212-2 ([2]; 1 μM ligand, 1 nM radioligand, DU-145 membranes) | decrease in [^35S]GTPγS binding below basal levels [3] [%] | modulation of [^35S]GTPγS binding [3] | CBR downregulation (reduction of [^3H]WIN-55,212-2 (1 nM) binding) ([4]; DU-145 cells, 10 μM, 48 h, vs vehicle) [%] | CBR downregulation (reduction of [^3H]WIN-55,212-2 (1 nM) binding) ([5]; PC-3 cells, 10 μM, 48 h, vs vehicle) [%] | LDH release (DU-145 cells) | increase in LDH release (DU-145 cells) | displacement of [^3H]WIN-55,212-2 [1] | displacement of [^3H]WIN-55,212-2 [2] | CBR downregulation (reduction of [^3H]WIN-55,212-2 (1 nM) binding) [4] [%] | CBR downregulation (reduction of [^3H]WIN-55,212-2 (1 nM) binding) [5] | attenuation of GW-405833 (50 μM)-induced LDH release (DU-145 cells; co-incubation with 10 μM ligand)
1 | Cc1c(C(=O)c2cccc3ccccc23)c2cccc3c2n1[C@H](CN1CCOCC1)CO3 [WIN-55,212-2] | significantly displaced; also recorded: complete displacement | significantly displaced; also recorded: complete displacement | 15.3 ± 1.6 | neither the agonist at canonical CB1/CB2 receptors WIN-55-212-2 (10 μM) nor the CB2-selective agonist GW-405-833 (10 μM) increased [^35S]GTPγS binding | 88.45 ± 5.22 | 84.33 ± 5.2 | neither low (10 μM) nor high (50 μM) concentrations of WIN-55,212-2, AM-251 or AM-630 altered LDH release | neither low (10 μM) nor high (50 μM) concentrations of WIN-55,212-2, AM-251 or AM-630 altered LDH release |  |  |  |  | 
2 | COc1ccc2c(c1)c(CCN1CCOCC1)c(C)n2C(=O)c1cccc(Cl)c1Cl [GW-405833] |  |  |  | neither the agonist at canonical CB1/CB2 receptors WIN-55-212-2 (10 μM) nor the CB2-selective agonist GW-405-833 (10 μM) increased [^35S]GTPγS binding |  |  | No significant effects | 74.2 ± 4.5% | greater than 50% | greater than 50% | 55 ± 12.5 | 68.33 ± 3.8% | 
3 | Cc1c(C(=O)NN2CCCCC2)nn(-c2ccc(Cl)cc2Cl)c1-c1ccc(Cl)cc1 [rimonabant] | greater than 50% |  |  | did reduce [^35S]GTPγS binding below basal levels |  |  | No significant effects | 16.5 ± 3.5% |  | greater than 50% | 63.75 ± 15.5 | non-significant trend towards decreased receptor expression | almost completely blocked GW-405833 induced LDH release

— paper PMC8954350, “Non-Canonical Cannabinoid Receptors with Distinct Binding and Signaling Properties in Prostate and Other Cancer Cell Types Mediate Cell Death” (International Journal of Molecular Sciences, 2022)
